The text below walks through data of patent US5650406A, “Adamantane derivative, process for producing the same, and use thereof” (Asahi Kasei Kogyo Kabushiki Kaisha, priority 1994, dated 1997).

The test system of the first test is apomorphine induced climbing. Kind of test: Suppressive action on apomorphine induced climbing (Table 2). It is filed as in vivo, ICR mice, male. To be noted: hydrochloride; 30 mg/kg, p.o.; 1 hour before apomorphine 2 mg/kg s.c.; climbing observed 3 minutes after 20-23 minutes. On the procedure:
Administering dopamine agohist, apomorphine in mouse resulted various abnormal behaviors, and especially, a climbing the cage has been known to be correlated with human schizophrenia. Therefore, a drug showing suppressire activity for apomorphine induced climbing in mice can be presumed to be effective as antischizophrenia activity on humans.
The compounds of the present invention were administered orally in ICR mice, male (Charles River Corp.), and after 1 hour, apomorphine 2 mg/kg was administered subcutaneously. Climbing behaviors of 3 minutes after 20-23 minutes of apomorphine administration were observed. Climbing behavior was observed by entering the mice in stainless steel made wire netting cage and measuring time remaining above the upper part of half part of the cage at observing. A climbing time of apomorphine single administered group is set as 100% and shortened time by administering the drug is shown in suppression rate.
In turn, `C1C2CC3CC1CC(C2)C3CCN1CC2CC3CC(C2)CC1C3` (stereo not drawn) [Example 7, 4-[2-(2-adamantyl)ethyl]-4-azatricyclo[4.3.1.1^3.8] undecane] returned a Suppressive rate of 60%.
With `OC12CC3CC(C1)C(CCN1CC4CC5CC(C4)CC1C5)C(C3)C2` (stereo not drawn) [Example 8, 4-[2-(5-hydroxy-2-adanaantyl)ethyl]-4-azatricyclo[4.3.1.1^3.8] undecane], the Suppressive rate is on record as 78%.
Regarding `C1CC2CCC1CN(CCC1C3CC4CC(C3)CC1C4)C2` (stereo not drawn) [Example 1, 3-[2-(2-adamantyl)ethyl]-3-azabicyclo[3.2.2] nonane], the Suppressive rate is listed as 62%.

A further test has as its system σ-receptor.
Test: not given
Particulars: cited from earlier work.
With `O=C(CCCN1CCC(O)(c2ccc(Cl)cc2)CC1)c1ccc(F)cc1` [haloperidol], the “affinity to σ-receptor (background, in words)” value (“affinity to σ-receptor” below) was “bind strongly with σ-receptor”.

Staying with this test, now noted: prior art; cited from earlier work.
With `OC(CCCN1CCN(c2ncc(F)cn2)CC1)c1ccc(F)cc1` (stereo not drawn) [BMY-14802], the “affinity to σ-receptor” value is listed as “show affinity to σ-receptor”.
Consider haloxon, for which the “affinity to σ-receptor” value was “no affinity to σ-receptor”.
For `c1ccc(C2(N3CCCCC3)CCCCC2)cc1` [phencyclidine], the “affinity to σ-receptor” value is “has affinities for σ-receptor”.
Regarding `C[C@@H]1CN(CCCn2c3ccccc3c3ccccc32)C[C@H](C)N1` [limcazol], the “affinity to σ-receptor” value is recorded as “show affinity to σ-receptor”.

The target of the next test is σ-receptor. Kind of test: σ-receptor binding, [^3 H] DTG displacement on rat brain membranes (Table 1). To be noted: hydrochloride; [^3 H] DTG 3 nM, 25° C., 60 minutes; rat brain membrane; read-out: Sigma [^3 H] DTG Ki. Also noted: species or system Sprague-Dowley rats.
The Ki is a dissociation constant, usually derived from enzyme kinetics or from competition with a known ligand. For the compound `C1C2CC3CC1CC(C2)C3CCN1CC2CC3CC(C2)CC1C3` (stereo not drawn) [Example 7, 4-[2-(2-adamantyl)ethyl]-4-azatricyclo[4.3.1.1^3.8] undecane], the Ki was found to be 0.26 nM.
In the case of `CC12CC3CC(C1)CC(CCN1CC4CCC(CC4)C1)(C3)C2` [Example 6, 3-[2-(3-methyl-l-adamantyl)ethyl]-3-azabicyclo[3.2.2] nonane], the inhibition constant Ki came to 0.45 nM.
`OC12CC3CC(C1)C(CCN1CC4CC5CC(C4)CC1C5)C(C3)C2` (stereo not drawn) [Example 8, 4-[2-(5-hydroxy-2-adanaantyl)ethyl]-4-azatricyclo[4.3.1.1^3.8] undecane]: the inhibition constant Ki turned out to be 1.23 nM.
Still for that read-out and setting: the value for `COC12CC3CC(C1)C(CCN1CC4CCC(CC4)C1)C(C3)C2` (single isomer, unassigned) [Example 4, 3-[2-(5-methoxy-2-adamantyl)ethyl]-3-azabicyclo[3.2.2] nonane] was 1.03 nM; that for `C1C2CC3CC1CC(C2)N(CCC12CC4CC(CC(C4)C1)C2)C3` [Example 11, 4-[2-(1-adamantyl)ethyl]-4-azatricyclo[4.3.1.1^3.8] undecane] was 0.2 nM.
On the same count and under the same terms, the value for `CC12CC3CC(C1)CC(CCN1CC4CC5CC(C4)CC1C5)(C3)C2` [Example 12] was 0.29 nM; that for `COC12CC3CC(C1)C(CCN1CC4CC5CC(C4)CC1C5)C(C3)C2` (stereo not drawn) [Example 10, 4-[2-(5-methoxy-2-adamantyl)ethyl]-4-azatricyclo[4.3.1.1^3.8] undecane] was 0.63 nM.
Regarding `ClC12CC3CC(C1)C(CCN1CC4CCC(CC4)C1)C(C3)C2` (single isomer, unassigned) [Example 3, 3-[2-(5-chloro-2-adamantyl)ethyl]-3-azabicyclo[3.2.2] nonane], the Ki is 0.27 nM.
Consider `ClC12CC3CC(C1)C(CCN1CC4CC5CC(C4)CC1C5)C(C3)C2` (stereo not drawn) [Example 9, 4-[2-(5-chloro-2-adamantyl)ethyl]-4-azatricyclo[4.3.1.1^3.8] undecane], for which the inhibition constant Ki amounted to 0.55 nM.
Regarding `OC12CC3CC(C1)C(CCN1CC4CCC(CC4)C1)C(C3)C2` (single isomer, unassigned) [Example 2, 3-[2-(5-hydroxy-2-adamantyl)ethyl]-3-azabicyclo[3.2.2] nonane], the Ki came out at 0.5 nM.
The same measure, in the same setting: next, `C1CC2CCC1CN(CCC1C3CC4CC(C3)CC1C4)C2` (stereo not drawn) [Example 1, 3-[2-(2-adamantyl)ethyl]-3-azabicyclo[3.2.2] nonane]: 0.34 nM; `C1CC2CCC1CN(CCC13CC4CC(CC(C4)C1)C3)C2` [Example 5, 3-[2-(1-adamantyl)ethyl]-3-azabicyclo[3.2.2] nonane]: 0.19 nM.

Still in this test, the particulars now being: radioactive ligand for σ-receptor, used in Ki calculation; read-out: Kd (concentration of affinity of radioactive ligand for receptor).
`Cc1ccccc1NC(=N)Nc1ccccc1C` [radioactive ligand, [^3 H] 1,3-di(2-tolyl) guanidine, reference compound]: the Kd was 10.6 nM.
